The source of these data is paper PMC8018184, “Evaluation of the Pharmacophoric Role of the O–O Bond in Synthetic Antileishmanial Compounds: Comparison between 1,2-Dioxanes and Tetrahydropyrans” (Journal of Medicinal Chemistry, 2020).

Series [1] has as its system intramacrophage amastigotes of L. donovani. In words: Amastigote growth inhibition assay in infected THP-1 cells (Giemsa, infectivity index). Conditions: for IC50: Leishmania donovani, intracellular amastigotes in THP-1, 72 h, read-out: IC50 against amastigotes of L. donovani. The class given is cell-based, Leishmania donovani. The procedure:
To evaluate the efficacy of the compounds on the intracellular form of L. donovani, human acute monocytic leukemia cell line (THP-1) was infected with L. donovani promastigotes. Cells were harvested and seeded in a 96-well plate (10^5 cells mL^–1) in the complete RPMI 1640 medium, and PMA (0.1 μM, Cayman Chemical Company, Ann Arbor, Michigan, USA) was added for obtaining maturation and cell adherence. Cells were incubated at 37 °C in a 5% CO2 incubator. After 48 h, the medium was replaced with the fresh medium containing stationary-phase promastigotes that were then phagocyted by monocytic cells and transformed into intracellular amastigotes. After 24 h of incubation, newly synthesized compounds were added and the plates were incubated at 37 °C in a 5% CO2 incubator for 72 h. After incubation, wells were washed, fixed, and stained with Giemsa. Staining was detected using a Nikon Eclipse E200 light microscope (Nikon, Tokyo, Japan). The infectivity index (% of infected macrophages × average number of amastigotes per macrophage) was determined by counting at least 100 cells in duplicate cultures.

Series [2] relates to L. donovani promastigotes (MHOM/NP/02/BPK282/0cl4). In words: Promastigote growth inhibition assay (alamarBlue). The class given is cell-based. The conditions noted are these: Leishmania donovani, HOMEM with 10% FBS.
The test system is the same in series [3]. In words: Promastigote growth inhibition assay (alamarBlue). In kind it is cell-based, Leishmania donovani. The conditions noted are these: for IC50: Leishmania donovani; for Selectivity index (SI) = CC50/IC50: Vero CC50 / IC50 on promastigotes; for Activity against promastigotes under the bioassay conditions: 40 μM compound. The procedure:
The bioactivity of the new tetrahydropyrans 3 was initially evaluated against the extracellular promastigote forms of L. donovani (MHOM/NP/02/BPK282/0cl4) as the reference strain, indicative of the leishmaniasis in the Old World. The results were expressed as IC50, i.e., the concentration of the product required to inhibit the parasite growth by 50%. When a compound could inhibit the promastigote growth, its cytotoxicity was also evaluated on Vero cells (Table 1) and on THP-1 cells (see the Supporting Information, Table S3) and the corresponding selectivity indexes (SIs) were calculated. The performance of each tetrahydropyran 3 was compared with that of the corresponding endoperoxide 2 (Table 1).
Promastigotes of a L. donovani reference strain (MHOM/NP/02/BPK282/0cl4) were maintained at 26 °C in a liquid custom-made medium, HOMEM Cat. no: 1140-082 (Gibco Thermo Fisher Scientific Inc., Waltham, USA), complete composition: S-MEM (Eagle) 1 × 1 liter pack, glucose (1–2 g), sodium bicarbonate (0.3 g), sodium pyruvate (0.11 g), p-aminobenzoic acid (1 mg), biotin (0.1 mg), HEPES (4.77–5.96 g), MEM amino acids (10 mL), MEM nonessential amino acids (10 mL), pH 7.5–7.6, supplemented with 20% fetal bovine serum (FBS, EuroClone SpA, Milan, Italy)[123] and 1% penicillin–streptomycin (EuroClone SpA).
To evaluate the efficacy of the compounds on the extracellular forms of L. donovani, promastigotes in their late log/stationary phase were seeded with the complete HOMEM medium at 10^6 cells mL^–1 in 96-well plates and incubated with tested compounds at a range concentration of 600–1.6 μM in a 26 °C incubator for 72 h. The antileishmanial drug amphotericin B was used as the positive control, and untreated promastigotes were the negative control. Each experiment was performed in duplicate. Stock solution of the compounds was 8 mM in DMSO. […] The alamarBlue assay includes a colorimetric growth indicator based on detection of metabolic activity. Specifically, the system incorporates an oxidation–reduction (REDOX) indicator that changes color in response to chemical reduction of the growth medium resulting from cell growth. The method monitors the reducing environment of proliferating cells; the cell-permeable resazurin is added (nonfluorescent form, blue color) and, upon entering cells, is reduced to resorufin (fluorescent form, red color) as a result of cellular metabolic activity. Evaluation was performed by adding 20 μL of alamarBlue and incubating at 26 °C for 24 h. The reducing environment was evaluated after 24 h by absorbance measurement at the Multiskan ascent plate reader (Thermo Fisher Scientific Inc.) at 550 and 630 nm.

Series [4] has as its system L. donovani promastigotes. Nature of the series: Promastigote growth inhibition in the presence of an iron chelator (DFO or DFP), isobologram. The class given is cell-based, Leishmania donovani. Conditions: synergism <0.5, antagonism >4.0, else additivity. Here is the method: At first, we determined IC50 and CC50 values of the iron chelator DFO (187 and >400 μM, respectively). Then, the effect of the iron chelator presence on the bioactivity of the two compounds was studied by coincubating 2a and 3a with DFO at different concentrations. The variation of IC50 of the compounds in relation to the different doses of DFO was determined by the alamarBlue assay (Table 3), and the isobole technique was employed to depict the interactions of 2a and 3a with DFO (Figure 6).
The isobole technique was used for depicting synergistic or antagonistic interaction between the iron chelator and the two compounds on the parasite growth (Figure 6). Combinations are expressed as the sum of the fractional inhibitory concentrations (ΣFIC), and FIC values are defined as synergism (<0.5), antagonism (>4.0), and additivity (no interaction). The strength of synergism (or antagonism) is indicated by the degree of deviation from the line of additivity.
[…]. Each compound was added using a concentration range including the IC50 of each compound. Each experiment was performed in duplicate. The viability of the parasites was determined by the alamarBlue assay. The fractional inhibitory concentration (FIC; FIC = IC50 of the drug in the combination/IC50 of the drug when tested alone) of each compound was calculated and plotted as an isobologram.

Series [5] in a line: Cytotoxicity test on Vero cells (alamarBlue). In kind it is cell-based, African green monkey. The procedure: (§1) Vero cells (kidney of African green monkey epithelial cell line) were cultured at 37 °C in the MEM liquid medium supplemented with 10% FBS (EuroClone SpA), 1% levoglutamine (EuroClone SpA), and 1% penicillin–streptomycin (EuroClone SpA). THP-1 cells (human leukemia monocytic cell line) were cultured at 37 °C in the RPMI 1640 (EuroClone SpA) liquid medium supplemented with 10% FBS (EuroClone SpA), 1% levoglutamine (EuroClone SpA), 1% penicillin–streptomycin, and mercaptoethanol (Gibco) 50 μM.
(§2) The cytotoxicity of the compounds was determined using mammalian kidney epithelial cells (Vero cell line) and human acute monocytic leukemia cell line (THP-1). Cells were seeded (10^5 cells mL^–1) on 96-well plates with the complete MEM medium and incubated with test compounds at 37 °C in a 5% CO2 incubator. After 72 h of incubation, 20 μL of the alamarBlue reagent was added to each well and incubated at 37 °C for 24 h. Reduction of resazurin to resorufin was evaluated after 24 h by absorbance measurement at the Multiskan ascent plate reader (Thermo Fisher Scientific Inc.,) at 550 and 630 nm. […] Each experiment was performed in duplicate.

Series [6] can be described thus: Cytotoxicity test on THP-1 cells (alamarBlue). The class given is cell-based. The conditions noted are these: human, THP-1 cells (acute monocytic leukemia cell line); CSV supplement; read-out: CC50 against human acute monocytic leukemia cell line (THP-1). The procedure: as §1, §2
Cytotoxicity in THP-1 cell line
We performed additional cytotoxicity tests employing THP-1 cell line. We also calculated the
corresponding selectivity indexes, as the ratio between CC50 of THP-1 cell line and IC50 on amastigotes
THP-1 cells than on VERO cells; thus showing a not significant variance of selectivity index.
Table S3. Inhibitory activity of tetrahydropyrans 3 and endoperoxides 2 against amastigotes of L.
donovani, cytotoxicity in human acute monocytic leukemia cell line (THP-1) and selectivity index (SI).
Tetrahydropyran IC50 CC50 Endoperoxide IC50 CC50
a (µM)b (µM)c a (µM)b (µM)c
a Compounds tested as racemates. b IC50 represents the concentration of a compound that causes 50% growth inhibition.
Results represent the mean (± standard deviation, SD) of three independent experiments performed in duplicate. c CC50
represents 50% cytotoxic concentration on THP-1 cells. d Selectivity index (SI) = CC50/IC50. […]

The mark [7] stands for this setting: THP-1 CC50 / IC50 on amastigotes.
The mark [8] stands for this setting: Vero CC50 / IC50 on amastigotes.
Where [9] appears, read: 72 h, alamarBlue, HOMEM 20% FBS, compounds as racemates, read-out: IC50 (concentration causing 50% growth inhibition) against promastigotes of L. donovani.
Where [10] appears, read: chlorocebus sabaeus, Vero cells (kidney epithelial cell line), 72 h, alamarBlue, read-out: CC50 (50% cytotoxic concentration) on Vero cells.

Like-named read-outs stand apart in the source and are kept apart here.

On to `CO[C@]1(C)OCC(c2ccccc2)(c2ccccc2)C[C@@H]1CNCCCn1ccnc1` (racemic) [3b, 3-(1H-Imidazol-1-yl)-N-((2-methoxy-2-methyl-5,5-diphenyltetrahydro-2H-pyran-3-yl)methyl)propan-1-amine], for which the IC50 worked out at 3.2 ± 0.9 µM in series [1], 3.2 µM in series [2] and 5.8 ± 0.9 µM in series [3] (setting [9]). For the same compound, the “Selectivity index (SI) = CC50/IC50” value in series [1] (setting [7]) is recorded as 15.6; in series [1] (setting [8]), 13.2; in series [3] it was 7.3. The “Interaction with the iron chelator DFO (isobologram, ΣFIC)” value in series [4] is given as “additive effects”. Further, the values for the CC50 at 72 h in series [5] (setting [10]) and in series [6] were 42.3 ± 3.2 µM and 50 µM, respectively.

With `CO[C@]1(C)OCC(C)(C)C[C@@H]1CNCCCn1ccnc1` (racemic) [3c, 3-(1H-Imidazol-1-yl)-N-((2-methoxy-2,5,5-trimethyltetrahydro-2H-pyran-3-yl)methyl)propan-1-amine], the “Activity against promastigotes under the bioassay conditions” value in series [3] was “inactive”. Besides, in series [3] (setting [9]), the IC50 is > 40 µM.

Consider `CO[C@]1(C)OCC(c2ccccc2)(c2ccccc2)C[C@@H]1COCc1cn(CCC[P+](c2ccccc2)(c2ccccc2)c2ccccc2)nn1.[Br-]` (racemic) [3d, (3-(4-(((2-Methoxy-2-methyl-5,5-diphenyltetrahydro-2H-pyran-3-yl)methoxy)methyl)-1H-1,2,3-triazol-1-yl)propyl)triphenylphosphonium bromide], for which the IC50 in series [1] stood at 2.8 ± 0.7 µM; in series [3] (setting [9]) it was 18 ± 3 µM. Besides, the “Selectivity index (SI) = CC50/IC50” value in series [1] (setting [7]) is reported as 22.9; in series [1] (setting [8]), 32.8; in series [3], 5.1. Besides, the CC50 at 72 h was determined as 92 ± 8.7 µM in series [5] (setting [10]) and 64.1 µM in series [6].

As for `CCCCC1(CCCC)CO[C@@](C)(OC)[C@@H](CNCCCCNc2c3ccc(Cl)cc3nc3ccc(OC)cc23)C1` (racemic) [3e, N^1-(6-Chloro-2-methoxyacridin-9-yl)-N^4-((5,5-dibutyl-2-methoxy-2-methyltetrahydro-2H-pyran-3-yl)methyl)butane-1,4-diamine], the IC50 in series [3] (setting [9]) was 0.9 µM. In series [3], the “Selectivity index (SI) = CC50/IC50” value stood at 1.3. For the same compound, the CC50 at 72 h in series [5] (setting [10]) came out at 1.2 µM.

In the case of `CO[C@]1(C)OOC(C)(C)C[C@@H]1CNCCCn1ccnc1` [2c], the “Activity against promastigotes under the bioassay conditions” value in series [3] is “inactive”. Besides, the IC50 in series [3] (setting [9]) is > 40 µM.

Take `Br.CO[C@]1(C)OOC(c2ccccc2)(c2ccccc2)C[C@@H]1COCc1cn(CCC[P+](c2ccccc2)(c2ccccc2)c2ccccc2)nn1` [2d]: the IC50 amounted to 16.5 ± 1.5 µM in series [1] and 13.8 ± 2.2 µM in series [3] (setting [9]). The “Selectivity index (SI) = CC50/IC50” value was found to be 8.6 in series [1] (setting [7]), 14.4 in series [1] (setting [8]) and 17.3 in series [3]. Moreover, the CC50 at 72 h in series [5] (setting [10]) was found to be 238 ± 36.8 µM; in series [6], 142 µM.

Turning to `CCCCC1(CCCC)C[C@H](CNCCCCNc2c3ccc(Cl)cc3nc3ccc(OC)cc23)[C@](C)(OC)OO1` [2e, N^1-(6-Chloro-2-methoxyacridin-9-yl)-N^4-((6,6-dibutyl-3-methoxy-3-methyl-1,2-dioxan-4-yl)methyl)butane-1,4-diamine], the IC50 in series [3] (setting [9]) was determined as 0.5 µM. Besides, the “Selectivity index (SI) = CC50/IC50” value in series [3] is 2.6. For the same compound, in series [5] (setting [10]), the CC50 at 72 h was 1.3 µM.

Consider `CCCCC1(CCCC)C[C@H](CNCCCCNc2ccc([N+](=O)[O-])c3nonc23)[C@](C)(OC)OO1` [2f, N^1-((6,6-Dibutyl-3-methoxy-3-methyl-1,2-dioxan-4-yl)methyl)-N^4-(7-nitrobenzo[c][1,2,5]oxadiazol-4-yl)butane-1,4-diamine], for which, in series [3] (setting [9]), the IC50 was found to be 11.4 µM. Moreover, in series [3], the “Selectivity index (SI) = CC50/IC50” value turned out to be 1.1. In addition, the CC50 at 72 h in series [5] (setting [10]) amounted to 12.1 µM.

Regarding `C[C@H]1[C@H](OC(=O)CCC(=O)O)O[C@@H]2O[C@@]3(C)CC[C@H]4[C@H](C)CC[C@@H]1[C@@]24OO3` [Artesunate, reference compound], the IC50 in series [1] and in series [3] (setting [9]) was > 40 µM in each case.

Turning to `CC(=O)N(O)CCCCCNC(=O)CCC(=O)N(O)CCCCCNC(=O)CCC(=O)N(O)CCCCCN` [DFO, desferrioxamine, reference compound], in series [3] (72 h, read-out: IC50 (concentration causing 50% growth inhibition) against promastigotes of L. donovani), the IC50 amounted to 187 µM. The CC50 at 72 h in series [5] (cell line not given, read-out: CC50 of the iron chelator) was > 400 µM.

For the compound `Cc1c(O)c(=O)ccn1C` [DFP, deferiprone, reference compound], the IC50 in series [3] (read-out: IC50 of the iron chelator DFP) was 219 µM. Further, the CC50 at 72 h in series [5] (cell line not given, read-out: CC50 of the iron chelator DFP) worked out at 143 µM.
